# Source: patent publication US5942641A, “Fluorenone derivatives, process for preparing the same and central or peripheral nerve degeneration repair and protective agent” (Otsuka Pharmaceutical Co., Ltd., priority 1993, dated 1999)
# Test system: Nerve cells of the cerebral cortex
# Assay: Pharmacological test 1: neurite sprouting (NS) of cultured fetal rat cerebral cortex nerve cells, phase contrast microscopy versus control
# Type: cell-based
# Design: key: ++: extremely strong in comparison with the control; +: strong in comparison with the control; ±: same as the control; -: inferior to the control
# Settings: Dose 10^-5 (mole); 10 days after initiation of culture
# Text: Nerve cells of the cerebral cortex were removed aseptically from a fetal rat (17 days-old) and cultured according to a Asou's method [Asou, H. Brain Res., 332; pages 355-357 (1985)]. After the meninx, blood vessel, etc. were removed from the cerebral hemisphere, they were put through a stainless steel mesh (pore size: 140μm). Then, the isolated cells were floated on a culture medium (Eagle's basal medium containing 10% fetal bovine serum and glucose of 1 g/l) and 1.5×10^6 cells were respectively seeded on a dish (diameter: 35 mm) coated with poly-L-lysine to initiate the culture (37° C., 3% CO2). After 24 hours, the culture medium was replaced by a culture medium containing a test compound and cultured for additional 9 days.
# 10 Days after initiation of the culture, neurite sprouting (NS) was evaluated under phase contrast microscopy by comparing with the control group.
row,SMILES,neurite sprouting (NS)
1,C=CCc1cc(C)c2c(c1O)C(=O)c1ccccc1-2 [Example 11],+
2,C=CCc1c(O)ccc2c1C(=O)c1ccccc1-2 [Example 17],++
3,C=CCc1cc2c(cc1O)C(=O)c1ccccc1-2 [Example 18],++
4,C=CCc1cc2c(c(CC=C)c1O)C(=O)c1ccccc1-2 [Example 19],++
5,"C=CCc1ccc2c(c1O)-c1ccc(O)c(CC=C)c1C2=O [Example 27, 1,6-Diallyl-2,5-dihydroxyfluorenone]",+
6,C=CCc1ccc(O)c2c1C(=O)c1c-2ccc(O)c1CC=C [Example 28],++
7,O=C1c2cc(O)ccc2-c2cc(O)ccc21 [Example 40],++
8,C=CCc1ccc(O)c2c1C(=O)c1ccccc1-2 [Example 61],++

# Same assay, conditions: Dose 10^-6 (mole); 10 days after initiation of culture
row,SMILES,neurite sprouting (NS)
1,C=CCc1c(O)ccc2c1C(=O)c1c-2ccc(O)c1CC=C [Example 48],+
2,C=CCc1ccc2c(c1O)-c1ccccc1C2=O [Example 62],++

# Same assay, conditions: Dose 10^-7 (mole); 10 days after initiation of culture
row,SMILES,neurite sprouting (NS)
1,C=CCc1cc2c(cc1O)C(=O)c1c-2ccc(CC=C)c1O [Example 14],++
2,C=CCc1cc2c(c(CC=C)c1O)C(=O)c1c(O)c(CC=C)cc(CC=C)c1-2 [Example 16],+
3,"C=CCc1c(O)c(O)c(CC=C)c2c1C(=O)c1ccccc1-2 [Example 21, 1,4-diallyl-2,3-dihydroxyfluorenone]",++
4,O=C1c2cc(O)ccc2-c2c(O)cccc21 [Example 26],+
5,C=CCc1cc2c(c(CC=C)c1O)C(=O)c1c(CC=C)cc(CC=C)c(O)c1-2 [Example 31],+
6,C=CCc1cc2c(cc1O)C(=O)c1cccc(O)c1-2 [Example 35],+
7,C=CCc1cc2c(c(CC=C)c1O)C(=O)c1cc(CC=C)c(O)c(CC=C)c1-2 [Example 45],+
8,C=CCc1cc2c(c(CC=C)c1O)-c1ccccc1C2=O [Example 60],+

# Test system: mouse dorsal root ganglion cells
# Assay: Pharmacological Test 2: neurite outgrowth in primary culture of mouse dorsal root ganglion cells
# Type: cell-based, mouse (C57BL/6)
# Design: key: +: positive; ±: false positive; -: negative
# Settings: Dose 3 × 10^-7 (mole); 7 days culture
# Procedure: (The measurement of neurite outgrowth in primary culture of mouse dorsal root ganglion cells)
# Preparation of cells was conducted according to a method of Horie et al. [H. Horie., FEBS, 296, 23 (1990)]. That is, C57BL/6 male mice aged 10 to 15 weeks were used. They were bleeded to death under ether anesthetization and the backbone from cervical vertebra to sacral vertebra was removed. The capsule of dorsal root ganglion of which ventral root and dorsal root had been cut was stripped in a Ham F12 medium (Flow laboratories) and then ganglia were treated with 0.25% collagenase (Worthington Biochemical Corporation) at 37° C. for 90 minutes. The medium was replaced by a Hank's physiological buffer solution containing no calcium and magnesium and cells were treated with 0.25% trypsin (Flow Laboratories) at room temperature for 20 minutes. A trypsin inhibitor (Sigma, 100 μg/ml) was added to terminate the enzyme reaction and trituration was conducted 20 times using a tapered Pasteur pipette. The medium was replaced again by the Ham F12 medium and cells were put through a nylon mesh (150 μm) to remove a cell mass which had not been separated. Cells were suspended in the Ham F12 medium containing a N1 additive [Bottenstein, J. E., Exp. Cell. Res., 125, 183 (1980)] (kanamycin of 60 μg/ml added).
# A poly-1-lysine-coating cell disc as a culture medium which had been subjected to 10 μg/ml laminin (Koken Cell Gen) coating treatment at 37° C. for 3 hours was placed on a 24 well dish and nerve cells (5000 to 10000 cells/dish) were seeded. The test compound (concentration: 0.01 mol/l) was dissolved in dimethyl sulfoxide and diluted with a phosphate buffer solution to adjust to a final concentration, and then added to a culture solution. Cells were cultured in 5% CO2 -95% air phase at 37° C. for 7 days.
# For the measurement of neurite outgrowth, the cell disc was washed with a phosphate buffer solution 7 days after initiation of the culture and immobilized with 4% paraformaldehyde at 4° C. for 24 hours, and then immune staining was conducted with Vecstatin ABC kit (Vector) using a neurofilament antibody (200 kD, manufactured by Boehringer Mannheim GmbH). The periphery of the cell disc was restrictively observed under microscopy, and the amount of neurofilament (whole length per well) was evaluated by comparing with the control well according to the following criteria: positive (+), false positive (±) and negative (-).
row,SMILES,Neurite outgrowth action
1,"Cc1cc2c(c(C)c1O)C(=O)c1ccc(C)c(O)c1-2 [Example 118, 1,3,6-trimethyl-2,5-dihydroxyfluorenone]",+
2,Cc1cc2c(c(C)c1O)C(=O)c1ccc(CSc3ccccc3)c(O)c1-2 [Example 136],+

# Same assay, conditions: Dose 3 × 10^-8 (mole); 7 days culture
row,SMILES,Neurite outgrowth action
1,CCCc1cc2c(c(CCC)c1O)C(=O)c1c(CCC)cc(CCC)c(O)c1-2 [Example 32],+
2,CCCc1cc2c(c(CCC)c1OC(C)=O)C(=O)c1c(CCC)cc(CCC)c(OC(C)=O)c1-2 [Example 134],+
3,COc1ccc(SCc2ccc3c(c2O)-c2cc(C)c(O)c(C)c2C3=O)cc1 [Example 141],+
4,Cc1cc2c(c(C)c1O)C(=O)c1ccc(CSC3CCCCC3)c(O)c1-2 [Example 142],+

# Same assay, conditions: Dose 10^-6 (mole); 7 days culture
row,SMILES,Neurite outgrowth action
1,C=CCc1c(O)ccc2c1C(=O)c1ccccc1-2 [Example 17],+
2,C=CCc1cc2c(cc1O)C(=O)c1ccccc1-2 [Example 18],+
3,"O=C1c2ccccc2-c2cc(O)c(O)cc21 [Example 20, 2,3-dihydroxyfluorenone]",+
4,COc1cccc2c1-c1cc(C(C)C)c(O)cc1C2=O [Example 36],+
5,O=C1c2cc(O)ccc2-c2cc(O)ccc21 [Example 40],+
6,C=CCc1cc2c(c(CC=C)c1O)-c1ccccc1C2=O [Example 60],+
7,C=CCc1ccc2c(c1O)-c1ccccc1C2=O [Example 62],+
8,CSc1ccc(O)c2c1C(=O)c1ccccc1-2 [Example 63],+
9,C=CCc1cc(SC)c2c(c1O)-c1ccccc1C2=O [Example 64],+

# Same assay, conditions: Dose 10^-7 (mole); 7 days culture
row,SMILES,Neurite outgrowth action
1,C=CCc1cc2c(c(CC=C)c1O)C(=O)c1ccccc1-2 [Example 19],+
2,"C=CCc1c(O)c(O)c(CC=C)c2c1C(=O)c1ccccc1-2 [Example 21, 1,4-diallyl-2,3-dihydroxyfluorenone]",+
3,"CCCc1c(O)c(O)c(CCC)c2c1C(=O)c1ccccc1-2 [Example 22, 1,4-di-n-propyl-2,3-dihydroxyfluorenone]",+
4,O=C1c2cc(O)ccc2-c2c(O)cccc21 [Example 26],+
5,"C=CCc1ccc2c(c1O)-c1ccc(O)c(CC=C)c1C2=O [Example 27, 1,6-Diallyl-2,5-dihydroxyfluorenone]",+
6,C=CCc1cc2c(cc1O)C(=O)c1ccc(CC=C)c(O)c1-2 [Example 29],+
7,C=CCc1cc2c(cc1O)C(=O)c1c(CC=C)ccc(O)c1-2 [Example 30],+
8,C=CCc1cc2c(c(CC=C)c1O)C(=O)c1c(CC=C)cc(CC=C)c(O)c1-2 [Example 31],+
9,C=CCc1cc(Cl)c2c(c1O)-c1cc(Cl)c(O)c(CC=C)c1C2=O [Example 33],+
10,C=CCc1cc(Cl)c(O)c2c1C(=O)c1c-2cc(Cl)c(O)c1CC=C [Example 34],+
11,C=CCc1c(O)ccc2c1C(=O)c1ccc(O)c(CC=C)c1-2 [Example 41],+
12,C=CCc1cc2c(cc1O)-c1cc(CC=C)c(O)cc1C2=O [Example 44],+
13,C=CCc1cc2c(c(CC=C)c1O)C(=O)c1cc(CC=C)c(O)c(CC=C)c1-2 [Example 45],+
14,C=CCc1c(O)ccc2c1C(=O)c1c-2ccc(O)c1CC=C [Example 48],+
15,C=CCc1cc2c(c(CC=C)c1O)C(=O)c1c-2cc(CC=C)c(O)c1CC=C [Example 50],+
16,CCCc1cc2c(c(CCC)c1O)C(=O)c1c-2cc(CCC)c(O)c1CCC [Example 53],+
17,"CCCc1cc2c(c(Cl)c1O)C(=O)c1c-2cc(Cl)c(O)c1CCC [Example 54, 3,8-dichloro-1,6-di-n-propyl-2,7-dihydroxyfluorenone]",+
18,"C=CCc1cc2c(cc1OC(C)=O)C(=O)c1c-2ccc(OC(C)=O)c1CC=C [Example 106, 1,6-diallyl-2,7-diacetoxyfluorenone]",+
19,Cc1cc2c(c(C)c1O)C(=O)c1ccc(CNc3ncccn3)c(O)c1-2 [Example 123],+
20,CCCc1ccc2c(c1O)-c1cc(CNc3ncccn3)c(O)c(CCC)c1C2=O [Example 127],+
21,CCCc1ccc2c(c1O)-c1cc(CNC(CC(C)C)C(=O)OC)c(O)c(CCC)c1C2=O (stereo not drawn) [Example 131],+
22,CCCc1ccc2c(c1O)-c1cc(CN3CCC[C@H]3C(=O)OC)c(O)c(CCC)c1C2=O [Example 132],+
23,CCCc1cc2c(c(CC(C)OCCOCCO)c1O)C(=O)c1c(CCC)cc(CCC)c(O)c1-2 (stereo not drawn) [Example 143],+
24,Cc1cc2c(c(C)c1O)C(=O)c1ccc(CC#N)c(O)c1-2 [Example 144],+

# Test system: hyperoxidation reaction of lipid (microsome fraction)
# Assay: Pharmacological test 3: antioxidation action, hyperoxidation reaction of lipid due to ascorbic acid induction in liver microsome fraction (TBA value)
# Type: biochemical, Wister rat
# Settings: 37° C., 15 minutes; 200 μM ascorbic acid, 20 μM ferrous sulfate; read-out: IC50 (antioxidation, 50% inhibition concentration)
# Procedure: (The measurement of antioxidation action)
# The antioxidation action was measured using the hyperoxidation reaction of lipid due to ascorbic acid induction [Shimada, O. and Yasuda, H. BBA489, 163-172 (1977)].
# Microsome fraction was obtained from a lever of Wister rat by a Kato's method [J. Biochem., 59, 574 (1966)]. This fraction was added to a 60 mM potassium phosphate buffer solution (containing 45 mM potassium chloride, 200 μM ascorbic acid and 20 μM ferrous sulfate) in an amount of 1 mg/ml and the test compound (0.1% dimethyl sulfoxide) was added, and the mixture was incubated at 37° C. for 15 minutes. The same amount of 10% trichloroacetic acid was added and the resultant was centrifuged. A portion of the supernatant was collected and the amount of malondialdehyde due to thiobarbituric acid (TBA value) was measured [Klaassen, C. D. and Plaa, G. L. Biochem. Pharmacol., 18: 2019 (1969)]. The inhibition ratio was calculated by the following formula:
# Inhibition ratio={1-(TBA value of specimen)/(TBA value of […]
row,SMILES,IC50
1,"C=CCc1c(O)c(O)c(CC=C)c2c1C(=O)c1ccccc1-2 [Example 21, 1,4-diallyl-2,3-dihydroxyfluorenone]",0.1 µM
2,"C=CCc1ccc2c(c1O)-c1ccc(O)c(CC=C)c1C2=O [Example 27, 1,6-Diallyl-2,5-dihydroxyfluorenone]",1.6 µM
3,C=CCc1cc2c(c(CC=C)c1O)C(=O)c1c(CC=C)cc(CC=C)c(O)c1-2 [Example 31],0.2 µM

# Target: T1, C-GMP-PDE (type V) (Homo sapiens, UniProt O76074)
# T1 construct: from tissue; host or cells: human blood platelets (healthy adult), DEAE-cellulose fraction FI
# Assay: Pharmacological test 4: C-GMP-PDE (type V) inhibition action
# Type: biochemical
# Settings: FI fraction from human blood platelet
# Procedure: (C-GMP-PDE (type V) inhibition action)
# The separation and purification of PDE from a human blood platelet was conducted according to a method of Hidaka et al. [Hidaka, H. and Asano, I., Biochem. Biophys. Acta 429, 485-497 (1976)]. That is, a blood platelet derived from a healthy adult was washed with water, floated with a Tris buffer solution and centrifuged. Then, the supernatant thereof was applied to DEAE-cellulose and separated into three fractions, FI, FII and FIII due to concentration gradient of sodium acetate. By using FI having high affinity to C-GMP, the inhibition action of the test compound was examined. The influence of the drug on PDE was represented by the inhibition ratio to PDE activity in the absence of the drug.
row,SMILES,IC50
1,"C=CCc1c(O)c(O)c(CC=C)c2c1C(=O)c1ccccc1-2 [Example 21, 1,4-diallyl-2,3-dihydroxyfluorenone]",14.7 µM
2,"C=CCc1ccc2c(c1O)-c1ccc(O)c(CC=C)c1C2=O [Example 27, 1,6-Diallyl-2,5-dihydroxyfluorenone]",8.7 µM
3,C=CCc1cc2c(c(CC=C)c1O)C(=O)c1c(CC=C)cc(CC=C)c(O)c1-2 [Example 31],0.4 µM
